In patent publication US10576076B2 (priority 2015, dated 2020):

Experiments:
[1] = system: influenza vaccine strains; assay: Clinical study in elderly volunteers: response to influenza vaccination after 6 weeks of mTOR inhibitor dosing; assay type: in vivo, human; details: 4 weeks after vaccination, 2 week drug-free break
Method: In a clinical study elderly volunteers were treated for 6 weeks daily with one of four mTOR inhibitor dosing regimens: 0.5 mg/day RAD001, 0.1 mg/day RAD001, 10 mg/day BEZ235 or 0.1 mg/day RAD001+10 mg/day BEZ235.
After being dosed for 6 weeks, the elderly volunteers were given a 2 week drug-free break and then received influenza vaccination. […] All dosing regimens were relatively well tolerated. […] However the majority of these adverse events were of mild severity, transient and resolved despite continued dosing of mTOR inhibitors.

mTOR = mTOR (Homo sapiens, UniProt P42345); details: low concentration; cited from earlier work
PI3K/mTOR = details: relatively higher concentrations; cited from earlier work

| Structure (SMILES) | vaccine strains with GMT ratio as compared to placebo >1.2 ([1]; BEZ235 10 mg/day monotherapy for 6 weeks) | concentration at which mTOR inhibition predominates (mTOR) | concentration at which dual PI3K/mTOR inhibition occurs (PI3K/mTOR) | vaccine strains with GMT ratio as compared to placebo >1.2 ([1]; RAD001 0.1 mg/day monotherapy for 6 weeks) | vaccine strains with GMT ratio as compared to placebo >1.2 ([1]; RAD001 0.5 mg/day monotherapy for 6 weeks) |
| --- | --- | --- | --- | --- | --- |
| Cn1c(=O)n(-c2ccc(C(C)(C)C#N)cc2)c2c3cc(-c4cnc5ccccc5c4)ccc3ncc21 [BEZ235, 2-methyl-2-[4-(3-methyl-2-oxo-8-quinolin-3-yl-2,3-dihydro-imidazo[4,5-c]quinolin-1-yl)-phenyl]-propionitrile] | 0/3 | less than 100 nmol/L | approximately 500 nmol/L | – | – |
| CO[C@H]1C[C@@H]2CC[C@@H](C)[C@@](O)(O2)C(=O)C(=O)N2CCCC[C@H]2C(=O)O[C@H]([C@H](C)C[C@@H]2CC[C@@H](OCCO)[C@H](OC)C2)CC(=O)[C@H](C)/C=C(\C)[C@@H](O)[C@@H](OC)C(=O)[C@H](C)C[C@H](C)/C=C/C=C/C=C/1C [RAD001, (1R,9S,12S,15R,16E,18R,19R,21R,23S,24E,26E,28E,30S,32S,35R)-1,18-dihydroxy-12-{(1R)-2-[(1S,3R,4R)-4-(2-hydroxyethoxy)-3-methoxycyclohexyl]-1-methylethyl}-19,30-dimethoxy-15,17,21,23,29,35-hexamethyl-11,36-dioxa-4-aza-tricyclo[30.3.1.04,9]hexatriaconta-16,24,26,28-tetraene-2,3,10,14,20-pentaone] | – | – | – | ⅓ | ⅓ |
